In US20250027055A1, “METHOD OF CULTURING THREE-DIMENSIONAL CELLULAR TISSUES” (priority 2021, published 2025):

How the values were obtained:
[1] = system: vascular endothelial cells; experiment: Monocrotaline exposure of three-dimensional cellular tissue containing hepatocytes, vascular endothelial cells and hepatic stellate cells; CD31 fluorescent immunostaining; format: cell-based; conditions: mixed three-cell-type three-dimensional tissue; exposure to various concentrations of monocrotaline; FIG. 1B
Description: FIG. 1A is a schematic diagram illustrating the above experiment. […] Then, after exposure to various concentrations of monocrotaline, the three-dimensional cellular tissue was fixed and stained for CD31 by fluorescent immunostaining. CD31 is a marker for endothelial cells.
The upper row of FIG. 1B is a fluorescence microscopy image showing the results of immunostaining. The lower row of FIG. 1B is a skeletonized image obtained by processing the image in the upper row of FIG. 1B.

[2] = system: vascular endothelial cells; experiment: Comparative experiment: liver tissue of hepatocytes only and separate three-dimensional tissue of vascular endothelial cells and hepatic stellate cells in the same well, monocrotaline exposure; CD31 fluorescent immunostaining; format: cell-based; conditions: hepatocyte tissue and endothelial/stellate tissue separate, not in contact, various concentrations of monocrotaline, FIG. 2B
Description: FIG. 2A is a schematic diagram illustrating a comparative experiment. […] Then, after exposure to various concentrations of monocrotaline, these tissues were fixed and stained for CD31 by fluorescent immunostaining.
FIG. 2B is a fluorescence microscopy image showing the results of immunostaining.

## C[C@H]1C(=O)O[C@@H]2CCN3CC=C(COC(=O)[C@](C)(O)[C@]1(C)O)[C@H]23 [monocrotaline]
[1]
  damage to the vascular endothelial cells of the blood vessels (CD31 immunostaining): damaged in a monocrotaline concentration-dependent manner
[2]
  damage to the vascular endothelial cells of the blood vessels (CD31 immunostaining): no damage to the vascular endothelial cells of the blood vessels was observed
